Data: US20170348258A1, “3-Amino Benzamide Derivative Serving As B-Lactam Auxiliary Antibiotic, Preparation Method and Use Thereof” (THE HONG KONG POLYTECHNIC UNIVERSITY, priority 2014, published 2017)
≈ marks a conversion by molar mass, not a printed value. Like-named read-outs stand apart in the source and are kept apart here.

Tests used:
E. coli = assay: Antibacterial susceptibility test (MIC, microbroth dilution); type: cell-based; details: 18 hours at 37° C., >90% inhibition of bacterial growth
Excerpt: (§1) The bacterial strains used in microbial susceptibility test were E. coli, S. aureus 29213 and B. subtilis 168. E. coli and S. aureus 29213 were obtained from the laboratory of the Hong Kong Polytechnic University. B. subtilis 168 was purchased from American Type Culture Collection (USA). The mammalian cell lines L929 (mouse peritoneal fibroblast), LCC6 (a wild type breast cancer cell line), LCC6MDR (P-gp over-expressed breast cancer cell line) were stocks in our department. Nutrient Agar, tryptone and yeast extract were purchased from Oxoid Limited (Nepean, Ontario, Canada). Luria-Bertani (LB) medium was prepared from 2 g tryptone, 1 g yeast extract, and 2 g sodium chloride in 200 ml deionized water and sterilized. Müller-Hinton broth (MHB), cation-adjusted Müller-Hinton broth (MHB) and trypticase soy broth (TSB) for microbial susceptibility test were purchased from Becton, Dickinson and Company (New Jersey, USA). A microplate reader (Bio-Rad Laboratories Model 680) is used to measure bacterial growth and cytotoxicity. An Olympus FSX100® Bio Imaging Navigator Microscope was used to observe the morphology of B. subtilis cell.
(§2) The minimum inhibitory concentration (MIC) of each compound was determined using microbroth dilution method according to the National Committee for Clinical Laboratory Standards (CLSI) guidelines. All Compounds were dissolved in DMSO and diluted in a serial two-fold manner. A single colony of bacterial strain on a TSB agar plate was inoculated in 5 mL MHB or CA-MHB. The bacterial cells were incubated at 37° C. until the optimal density (OD600) of the growing cells reached 1.0. The cells were then diluted to a final concentration of approximately 5×10^5 CFU/mL in a serial two-fold manner in a 96-well microtiter plate (Iwaki, Japan). Compound 3 and PC190723 were used as positive controls. […] Table 1 below summarizes the MIC of all synthesized compounds.

B. subtilis 168 = assay: as above; type: cell-based; details: 18 hours at 37° C., >90% inhibition of bacterial growth, read-out: MIC, BS 168
Excerpt: as §1, §2

S. aureus 29213 = assay: as above; type: cell-based; details: 18 hours at 37° C., >90% inhibition of bacterial growth
Excerpt: as §1, §2

MRSA strain USA300#757 = assay: Fractional Inhibitory Concentration Index (FICI) determination; type: cell-based, S. aureus
Method: The bacterial strains used in this study were clinically isolated MRSA strains USA300#757 and #2960 which were obtained from our laboratory. Determination of the Fractional Inhibitory Concentration Index (FICI) was adopted by the Müller-Hinton broth (MHB) dilution method as previously described. Twelve serial two-fold dilutions of PC190723, F332 and F361 were prepared in the 96-well microplate with concentration ranging from 512 to 0.25 μg/mL. […] Lastly, the compounds and the β-lactams were mixed at a 1:1 ratio and subjected to two-fold dilution as described previously. Each microplate well contained 100 μL of MHB supplemented with compounds alone, β-lactams alone or the mixture of compounds and β-lactams. Overnight cultures of S. aureus in the Müller-Hinton broth was diluted to OD595 of 0.08-0.1 in saline and added in each of the microplate well. The plates were incubated at 37° C. for 20 h. All tests were performed in duplicate and the inhibition of bacterial growth was determined by visualization. The FICI of compounds and β-lactams were calculated as followed: FICI=(MIC of combination of compound and β-lactam/MIC of compound alone)+(MIC of combination of compound and β-lactam/MIC of β-lactam alone).

MRSA strain USA300#2960 = assay: as above; type: cell-based, S. aureus
Method: The bacterial strains used in this study were clinically isolated MRSA strains USA300#757 and #2960 which were obtained from our laboratory. Determination of the Fractional Inhibitory Concentration Index (FICI) was adopted by the Müller-Hinton broth (MHB) dilution method as previously described. Twelve serial two-fold dilutions of PC190723, F332 and F361 were prepared in the 96-well microplate with concentration ranging from 512 to 0.25 μg/mL. A series of two-fold dilutions of ampicillin, cloxacillin and cefuroxime were also prepared following the same procedure. Lastly, the compounds and the β-lactams were mixed at a 1:1 ratio and subjected to two-fold dilution as described previously. Each microplate well contained 100 μL of MHB supplemented with compounds alone, β-lactams alone or the mixture of compounds and β-lactams. Overnight cultures of S. aureus in the Müller-Hinton broth was diluted to OD595 of 0.08-0.1 in saline and added in each of the microplate well. The plates were incubated at 37° C. for 20 h. All tests were performed in duplicate and the inhibition of bacterial growth was determined by visualization. The FICI of compounds and β-lactams were calculated as followed: FICI=(MIC of combination of compound and β-lactam/MIC of compound alone)+(MIC of combination of compound and β-lactam/MIC of β-lactam alone).

Compound	MIC (E. coli; Escherichia coli) [µM]	MIC (B. subtilis 168; Bacillus subtilis, 168) [µM]	MIC (S. aureus 29213; Staphylococcus aureus, 29213) [µM]	MIC (E. coli) [µM]	MIC (B. subtilis 168) [µM]	MIC (S. aureus 29213) [µM]	other results
CCCCOCCCCNc1ccc(F)c(C(N)=O)c1F [Compound F350, 3-((4′-butoxy)butylamino)-2,6-difluorobenzamide]	> 100	> 100	> 100				
NC(=O)c1c(F)ccc(N2CCCC2)c1F [Compound F357, 2,6-difluoro-3-(pyrrolidin-1-yl)benzamide]	> 100	> 100	> 100				
NC(=O)c1c(F)ccc(N2CCCCC2)c1F [Compound F358, 2,6-difluoro-3-(piperidin-1-yl)benzamide]	> 100	> 100	> 100				
NC(=O)c1c(F)ccc(NCc2ccc(F)c(F)c2)c1F [Compound F362, 3-((3′,4′-difluorobenzyl)amino)-2,6-difluorobenzamide]				>100	>100	>100	
NC(=O)c1c(F)ccc(N(Cc2ccc(F)c(F)c2)Cc2ccc(F)c(F)c2)c1F [Compound F363, 3-(bis(3′,4′-difluorobenzyl)amino)-2,6-difluorobenzamide]				>100	>100	50 (≈ 21.2 µg/mL)	
NC(=O)c1c(F)ccc(NCc2ccc(F)cc2F)c1F [Compound F364, 3-((2′,4′-difluorobenzyl)amino)-2,6-difluorobenzamide]				>100	>100	>100	
NC(=O)c1c(F)ccc(N(Cc2ccc(F)cc2F)Cc2ccc(F)cc2F)c1F [Compound F365, 3-(bis(2′,4′-difluorobenzyl)amino)-2,6-difluorobenzamide]				>100	<50	>100	
NC(=O)c1c(F)ccc(NCc2c(F)cccc2F)c1F [Compound F366, 3-((2′,6′-difluorobenzyl)amino)-2,6-difluorobenzamide]				>100	>100	>100	
NC(=O)c1c(F)ccc(N(Cc2c(F)cccc2F)Cc2c(F)cccc2F)c1F [Compound F367, 3-(bis(2′,6′-difluorobenzyl)amino)-2,6-difluorobenzamide]				>100	>100	>100	
CC(C)=CCC/C(C)=C/CNc1ccc(F)c(C(N)=O)c1F [Compound F369, (E)-3-((3,7-dimethyl-2,6-octadien-1-yl)amino)-2,6-difluorobenzamide]	> 100	50 (≈ 15.4 µg/mL)	> 100				
CCCCOc1cccc(CNc2ccc(F)c(C(N)=O)c2F)c1 [Compound F373, 3-((3′-butoxybenzyl)amino)-2,6-difluorobenzamide]				>100	25 (≈ 8.36 µg/mL)	50 (≈ 16.7 µg/mL)	
CCC(C)Oc1cccc(CNc2ccc(F)c(C(N)=O)c2F)c1 (stereo not shown) [Compound F377, 3-((3′-(sec-butoxy)benzyl)amino)-2,6-difluorobenzamide]				>100	>100	>100	
NC(=O)c1c(F)ccc(NCc2cccc(OCc3ccc(C(F)(F)F)cc3)c2)c1F [Compound F378, 2,6-difluoro-3-((3′-((4″-(trifluoromethyl)benzyl)oxy)benzyl)amino)benzamide]				>100	>100	>100	
CCCCCCCCCNc1cccc(C(N)=O)c1 [Compound F411, 3-(nonylamino)benzamide]	> 100	6.25 (≈ 1.64 µg/mL)	> 100				
CCCCCCCCNc1cccc(C(N)=O)c1 [Compound F412, 3-(octylamino)benzamide]	> 100	25 (≈ 6.21 µg/mL)	> 100				
CCCCCCCCCN(C)c1cccc(C(N)=O)c1 [Compound F413, 3-(methyl(nonyl)amino)benzamide]	> 100	> 100	> 100				
CCCCCCCCN(C)c1cccc(C(N)=O)c1 [Compound F414, 3-(methyl(octyl)amino)benzamide]	> 100	> 100	> 100				
NC(=O)c1c(F)ccc(OCc2nc3cc(Cl)cnc3s2)c1F [PC190723, reference compound]				>2	0.5 (≈ 0.178 µg/mL)	0.5 (≈ 0.178 µg/mL)	FICI with Cefotaxime (MRSA strain USA300#757): 1.02; FICI with Meropenem (MRSA strain USA300#757): 0.31; FICI with Cefotaxime (MRSA strain USA300#2960): 1.03; FICI with Meropenem (MRSA strain USA300#2960): 0.63

Further lines, with some results ahead:

MIC (E. coli; Escherichia coli) [µM]	MIC (B. subtilis 168; Bacillus subtilis, 168) [µM]	MIC (S. aureus 29213; Staphylococcus aureus, 29213) [µM]	MIC (E. coli) [µM]	MIC (B. subtilis 168) [µM]	MIC (S. aureus 29213) [µM]	Compound	other results
> 100	6.25 (≈ 1.78 µg/mL)	50 (≈ 14.2 µg/mL)				CCCCCCCCNc1ccc(F)c(C(N)=O)c1F [Compound F333, 2,6-difluoro-3-(octylamino)benzamide]	
> 100	> 100	> 100				CCCCCCCCCCNc1ccc(F)c(C(N)=O)c1F [Compound F334, 3-(decylamino)-2,6-difluorobenzamide]	
> 100	25 (≈ 7.01 µg/mL)	> 100				CCCCCCCCCNc1ccc(F)c(C(N)=O)c1 [Compound F342, 2-fluoro-5-(nonylamino)benzamide]	
> 100	100 (≈ 29.8 µg/mL)	> 100				CCCCCCCCCNc1cc(C(N)=O)c(F)cc1F [Compound F345, 2,4-difluoro-5-(nonylamino)benzamide]	
> 100	> 100	> 100				CCCCCCCCC(=O)Nc1ccc(F)c(C(N)=O)c1F [Compound F368, 2,6-difluoro-3-nonanamidobenzamide]	
> 100	6.25 (≈ 1.85 µg/mL)	25 (≈ 7.41 µg/mL)				CCCCCC/C=C\CNc1ccc(F)c(C(N)=O)c1F [Compound F370, (Z)-2,6-difluoro-3-(2-nonenylamino)benzamide]	
> 100	6.25 (≈ 2.36 µg/mL)	> 100				CCCCCCCCCNc1c(Br)cc(F)c(C(N)=O)c1F [Compound F371, 4-bromo-2,6-difluoro-3-(nonylamino)benzamide]	
			>100	12.5 (≈ 4.35 µg/mL)	50 (≈ 17.4 µg/mL)	CCCCCOc1cccc(CNc2ccc(F)c(C(N)=O)c2F)c1 [Compound F376, 2,6-difluoro-3-((3′-(pentyloxy)benzyl)amino)benzamide]	
> 100	50 (≈ 13.5 µg/mL)	50 (≈ 13.5 µg/mL)				CCCCCCCNc1ccc(F)c(C(N)=O)c1F [Compound F391, 2,6-difluoro-3-(heptylamino)benzamide]	
> 100	25 (≈ 7.46 µg/mL)	12.5 (≈ 3.73 µg/mL)				CCCCCCCCN(C)c1ccc(F)c(C(N)=O)c1F [Compound F409, 2,6-difluoro-3-(methyl(octyl)amino)benzamide]	
> 100	25 (≈ 7.81 µg/mL)	50 (≈ 15.6 µg/mL)				CCCCCCCCN(CC)c1ccc(F)c(C(N)=O)c1F [Compound F410, 3-(ethyl(octyl)amino)-2,6-difluorobenzamide]	
